From the PolyMetriX glass transition set
± gives the standard deviation of the reports.

| Structure (SMILES) | glass transition temperature [°C] |
| --- | --- |
| *c1ccc(Oc2ccc(Oc3ccc(P(=O)(c4ccccc4)c4ccc(Oc5ccc(Oc6ccc(-c7nc8ccccc8nc7*)cc6)cc5)cc4)cc3)cc2)cc1 (repeat unit) | 209.00 |
| *c1ccc(Oc2c(C)cc(C(c3cccnc3)c3cc(C)c(Oc4ccc(N5C(=O)CC(Nc6ccc(NC7CC(=O)N(*)C7=O)cc6)C5=O)cc4)c(C)c3)cc2C)cc1 (repeat unit) | 229.00 |
| *c1ccc(N2C(=O)c3ccc(Oc4ccc(Oc5ccc(P(=O)(c6ccccc6)c6ccc(Oc7ccc(Oc8ccc9c(c8)C(=O)N(*)C9=O)cc7)cc6)cc5)cc4)cc3C2=O)cc1 (repeat unit) | 220.00 |
| *Oc1ccc(C(C)(C)c2ccc(Oc3ccc(C(=O)c4ccc(*)c(S(=O)(=O)O)c4)cc3S(=O)(=O)O)cc2)cc1 (repeat unit) | 175.00 |
| *c1cccc(N2C(=O)c3ccc(Oc4ccc5c(c4)C(=O)N(*)C5=O)cc3C2=O)c1 (repeat unit) | 270.50 ± 13 |
| *Oc1ccc(NC(=O)c2cc(NC(=O)CCCCCCCCCCN3C(=O)c4ccccc4C3=O)cc(C(=O)Nc3ccc(*)cc3)c2)cc1 (repeat unit) | 160.00 |
| *c1cc(Oc2c(C)cc(-c3cc(C)c(Oc4cc(N5C(=O)c6ccc(-c7ccc8c(c7)C(=O)N(*)C8=O)cc6C5=O)cc(C(F)(F)F)c4)c(C)c3)cc2C)cc(C(F)(F)F)c1 (repeat unit) | 281.10 |
| *CC(*)C(=O)N(C)C (repeat unit) | 114.00 |
| *CCCCCCOc1ccc(C(C)(C)c2ccc(O*)cc2)cc1 (repeat unit) | 36.00 |
| *CCCCCCCCCCOC(=O)Nc1ccc(Cc2ccc(NC(=O)O*)cc2)cc1 (repeat unit) | 60.00 |
| *CC#C/C(C#CCOC(=O)CCCCCCCCC(=O)O*)=C\c1ccc(C#Cc2ccccc2)cc1 (repeat unit) | 60.00 |
| *CCCCCCC(=O)Oc1ccc(OC(=O)c2ccc3c(c2)C(=O)N(*)C3=O)c(C)c1 (repeat unit) | 57.21 |
| *Oc1ccc(/C=N/N=C/c2ccc(Oc3ccc(C(c4ccc(*)cc4)(C(F)(F)F)C(F)(F)F)cc3)cc2)cc1 (repeat unit) | 162.00 |
| *CCCCCC(*)CC (repeat unit) | -73.00 |
| *c1ccc(Oc2ccc(N3C(=O)c4ccc(Sc5ccc6c(c5)C(=O)N(*)C6=O)cc4C3=O)cc2)cc1 (repeat unit) | 258.00 |
| *CCCCCOC(=O)c1ccc(C(=O)O*)cc1 (repeat unit) | 16.00 |
| *c1ccc(Oc2ccc(Oc3ccc(Oc4ccc(-n5c(=O)c6cc7c(=O)n(*)c(=O)c7cc6c5=O)cc4)cc3)cc2)cc1 (repeat unit) | 295.00 |
| *C(=O)Nc1ccc(Oc2ccc(NC(=O)c3ccc4c(c3)C(=O)N(c3ccc(Oc5ccc(N6C(=O)c7ccc(*)cc7C6=O)cc5-c5ccccc5)c(-c5ccccc5)c3)C4=O)cc2-c2ccccc2)c(-c2ccccc2)c1 (repeat unit) | 369.00 |
| *Oc1ccc(C2(c3ccc(OC(*)=O)cc3)CCCCC2)cc1 (repeat unit) | 175.00 |
| *c1ccc2c(c1)C(=O)N(c1ccc(Cc3ccc(N4C(=O)c5ccc(C(*)(C(F)(F)F)C(F)(F)F)cc5C4=O)c(C(C)(C)C)c3)cc1C(C)(C)C)C2=O (repeat unit) | 274.00 |
| */C=C/C1CC(*)C(C(=O)OC)C1C(=O)OC (repeat unit) | 77.30 |
| *CC(*)c1ccc([Si](C)(C)O[Si](C)(C)O[Si](C)(C)C)cc1 (repeat unit) | -27.00 |

| Structure (SMILES) | glass transition temperature [°C] |
| --- | --- |
| *Oc1ccc(CC(NC(=O)CCc2ccc(OC(=O)COCCOCC(*)=O)cc2)C(=O)OCCCCCC)cc1 (repeat unit) | 28.00 |
| *C(=O)Nc1ccc(Oc2ccc(NC(=O)c3ccc4c(c3)C(=O)N(c3ccc(Oc5ccc(N6C(=O)c7ccc(*)cc7C6=O)cc5-c5ccccc5)c(-c5ccccc5)c3)C4=O)cc2)cc1 (repeat unit) | 345.00 |
| *c1cccc(OCCCCCOc2cccc(N3C(=O)c4ccc(-c5cccc6c5C(=O)N(*)C6=O)cc4C3=O)c2)c1 (repeat unit) | 168.00 |
| *C(=O)Nc1ccc(Oc2ccc(C(C)(C)c3ccc(Oc4ccc(NC(=O)c5ccc(N6C(=O)c7ccc(*)cc7C6=O)cc5)cc4)cc3)cc2)cc1 (repeat unit) | 216.00 |
| *CC(=O)C(*)C (repeat unit) | 23.00 |
| *c1cccc(C(c2cccc(N3C(=O)c4ccc(-c5ccc6c(c5)C(=O)N(*)C6=O)cc4C3=O)c2)(C(F)(F)F)C(F)(F)F)c1 (repeat unit) | 267.00 |
| *Oc1ccc(C(C)(C)c2ccc(C(C)(C)c3ccc(Oc4ccc(C(=O)Nc5cccc(NC(=O)c6ccc(*)cc6)c5)cc4)cc3)cc2)cc1 (repeat unit) | 173.00 |
| *CC(O)COc1ccc(C(C)(C)c2ccc(OCC(O)COc3cccc(NC(=O)c4cccc(C(=O)Nc5cccc(O*)c5)c4)c3)cc2)cc1 (repeat unit) | 133.00 |
| *Oc1c(C)cc(C2(c3cc(C)c(OC(=O)c4cccc(C(*)=O)c4)c(C)c3)c3ccccc3-c3ccccc32)cc1C (repeat unit) | 315.00 |
| *Oc1ccc(OC(=O)c2ccc(-c3ccc(C(*)=O)cc3)cc2-c2ccccc2)cc1C(C)(C)c1ccccc1 (repeat unit) | 146.00 |
| *Oc1ccc(S(=O)(=O)c2ccc(-c3ccc(S(=O)(=O)c4ccc(*)cc4)cc3)cc2)cc1 (repeat unit) | 282.00 |
| *CC(C)(C)COC(=O)CCC(=O)O* (repeat unit) | -18.00 |
| *CC(*)(F)F (repeat unit) [Poly(vinylidene fluoride)] | -32.77 ± 2.3 |
| *Oc1ccc(S(=O)(=O)c2ccc(Oc3c(C(C)C)cc(C(C)(C)c4cc(C(C)C)c(*)c(C(C)C)c4)cc3C(C)C)cc2)cc1 (repeat unit) | 175.00 |
| *Oc1ccc2c(c1)C1(CC2(C)C)CC(C)(C)c2ccc(OC(*)=O)cc21 (repeat unit) | 228.00 |
| *c1ccc(-c2ccc(-c3ccc(-c4ccc(-c5ccc(*)n5CCCCCCCCCCCC)s4)s3)s2)s1 (repeat unit) | 54.00 |
| *O[Si](*)(C)CCCOc1ccc(C(=O)Oc2ccc(-c3ccc(OC(=O)c4cc(OCC(C)CC)c(OCC(C)CC)c(OCC(C)CC)c4)cc3)cc2)cc1 (repeat unit) | 60.00 |
| *Cc1c(C)c(C)c(CNC(=O)CCCCCC(C)CC(=O)N*)c(C)c1C (repeat unit) | 211.00 |
| *C(=O)c1ccc2ncc(-c3ccc(-c4cnc5ccc(*)cc5n4)cc3)nc2c1 (repeat unit) | 318.00 |
| *CC#CCOC(=O)NCCCCCCNC(=O)O* (repeat unit) | -45.00 |
| *CCCOC(=O)Nc1cc(NC(=O)O*)ccc1C (repeat unit) | 6.00 |
| *C(=O)Nc1ccc(Cc2ccc(NC(=O)c3ccc4c(c3)C(=O)N(c3ccc(Oc5ccc6ccc(Oc7ccc(N8C(=O)c9ccc(*)cc9C8=O)cc7)cc6c5)cc3)C4=O)cc2)cc1 (repeat unit) | 273.00 |

| Structure (SMILES) | glass transition temperature [°C] |
| --- | --- |
| */C=C/CCCCCCCCCC(CCCCCCCCC*)COCCOCCOCCOCCOCc1ccc2ccc3cccc4ccc1c2c34 (repeat unit) | -36.00 |
| *Oc1c(C)cc(C2(c3cc(C)c(OC(=O)c4cccc(C(*)=O)c4)c(C)c3)CCC3CCCCC3C2)cc1C (repeat unit) | 261.00 |
| *c1ccc(-c2ccc(N3C(=O)c4ccc(-c5cccc6c5C(=O)N(*)C6=O)cc4C3=O)c(C)c2)cc1C (repeat unit) | 384.00 |
| *C(=O)Nc1cccc(NC(=O)c2ccc3[nH]c(-c4cc(-c5nc6cc(*)ccc6[nH]5)cc(N5C(=O)c6ccccc6C5=O)c4)nc3c2)n1 (repeat unit) | 312.00 |
| *O[Si](C)(C)O[Si](*)(C)c1c(F)c(F)c(F)c(F)c1F (repeat unit) | -65.00 |
| *Oc1ccccc1C(=O)OC(=O)c1ccccc1OC(=O)C(C)C(C)C(*)=O (repeat unit) | 45.00 |
| *C1C2CC(C(=O)OCCc3ccc(N(c4ccccc4)c4ccccc4)cc3)C(C2)C1* (repeat unit) | 307.00 |
| *Cc1cc2cc(C(=O)Nc3ccc(Oc4ccc(NC(=O)c5cc6cc(*)c(OC(=O)COc7ccc8ccc(=O)oc8c7)cc6oc5=O)cc4)cc3)c(=O)oc2cc1OC(=O)COc1ccc2ccc(=O)oc2c1 (repeat unit) | 226.00 |
| *CCCC(C)(C)CNC(=O)CCCC(=O)N* (repeat unit) | 82.00 |
| *OC(F)(F)C(*)(F)F (repeat unit) | -48.00 |
| *CCCCC(=O)O* (repeat unit) | -66.00 |
| *Oc1c(OC)cc(-c2cc(OC)c(OC(=O)CCCCCCCCC(*)=O)c(OC)c2)cc1OC (repeat unit) | 94.00 |
| *Oc1ccccc1C(=O)OC(=O)c1ccccc1OC(=O)CCCCCCC(*)=O (repeat unit) | 28.00 |
| *c1ccc(Oc2ccc(C(C)(C)c3ccc(Oc4ccc(-c5nnc(*)n5-c5ccc(C)cc5)cc4)cc3)cc2)cc1 (repeat unit) | 205.00 |
| *Oc1c(C)cc(-c2cc(CBr)c(Oc3ccc(C(=O)c4ccc(*)cc4)cc3)c(CBr)c2)cc1CBr (repeat unit) | 163.67 |
| */C=C/c1cccc(OC(=O)CCCCCCCCC(=O)Oc2ccc(-c3nnc(*)s3)cc2)c1 (repeat unit) | 55.00 |
| *Oc1ccc(NC(=O)c2cc(NC(=O)c3ccccc3)cc(C(=O)Nc3ccc(*)cc3)c2)cc1 (repeat unit) | 294.50 |
| *CCCCCCCCCCNC(=O)/C=C(\C)C(=O)N* (repeat unit) | 74.00 |
| *CC(*)(C)C(=O)OCCNC(C)(C)C (repeat unit) | 41.00 |
| *c1ccc2c(c1)C(CCCCCC)(CCCCCC)c1cc(*)ccc1-2 (repeat unit) | 102.50 ± 2.1 |
| *Oc1ccc(C(C)(CCC#N)c2ccc(OC(*)=O)cc2)cc1 (repeat unit) | 150.00 |
| *CCCCCCCCOc1ccc(C(C)(C)c2ccc(O*)cc2)cc1 (repeat unit) | 19.60 |
